Experimental data reported in patent US11345658B2, “Compounds and compositions comprising the same for treating hypertension or heart failure” (QUANTUM GENOMICS, priority 2019, dated 2022).

What was measured:
[1] = tested on: post-MI mice; experiment: Left ventricular ejection fraction (LVEF) by echocardiography in mice post myocardial infarction; assay type: in vivo, CD1 mice; details: mice 4 weeks post MI, Mean±SEM
Protocol: Adult male CD1 mice were anesthetized with a mixture of 100 mg/kg ketamine (Imalgene 1000, Merial, Lyon, France) and 10 mg/kg xylazine (Rompun 2%, Bayer Healthcare, Loos, France), via intraperitoneal injection, intubated and ventilated at a rate of 200 insufflations/min, with a mean insufflate volume of 0.2 mL (Bioseb, France). The skin was disinfected and incised between the 2nd and 3rd intercostal space and the heart was exposed by left thoracotomy. Pericardium was opened and the left anterior descending (LAD) coronary artery infarction was permanently ligatured between the pulmonary artery trunk and the left atrial appendage, with 8/0 […] suture. (PVDF monofilament, 8-0, Peters Surgical, Bobigny, France). Ischemia was confirmed by visible left ventricle (LV) bleaching under the ligature. The thorax was then closed by three discontinuous points (PVDF monofil, 6/0, Peters Surgical, Bobigny, France) then mice received a subcutaneously injection of Meloxicam 1 mg/kg (Metacam, Boehringer Ingelheim, Germany) for prolonged analgesia. The pneumothorax was drained. The muscles and skin were then sutured (prolene thread 6-0, Peters Surgical, France) and the animals were rehydrated with saline at 37° C. Animals were extubated as soon as they could breathe spontaneously. The animal was placed in a cage and monitored regularly over 48 hours. Mice received an injection of Meloxicam 1 mg/kg, 24 hours postsurgery and up to 72 hours. The same surgical procedure was performed without LAD coronary artery ligation in sham-operated mice.
Post-MI mice received chronic oral treatment firibastat (RB150 used as a reference of brain APA inhibitor) at 150 mg/kg, ramipril (ACE inhibitor as standard treatment) at 1.25 mg/kg, or example 2 at 25 mg/kg with peanut butter vehicle. […] Cardiac function was evaluated regularly by trans-thoracic echocardiography at 4 weeks post MI to analyze the effects of different chronic oral treatment on heart contractility.

[2] = target: T1, brain APA (Mus musculus, UniProt P16406); experiment: Measurement of brain APA activity ex vivo after i.v. administration in mice; details: 50 mg/kg i.v., 180 min after administration
T1 construct: from tissue; host or cells: mouse brain homogenate
T1 sequence (P16406 1-945): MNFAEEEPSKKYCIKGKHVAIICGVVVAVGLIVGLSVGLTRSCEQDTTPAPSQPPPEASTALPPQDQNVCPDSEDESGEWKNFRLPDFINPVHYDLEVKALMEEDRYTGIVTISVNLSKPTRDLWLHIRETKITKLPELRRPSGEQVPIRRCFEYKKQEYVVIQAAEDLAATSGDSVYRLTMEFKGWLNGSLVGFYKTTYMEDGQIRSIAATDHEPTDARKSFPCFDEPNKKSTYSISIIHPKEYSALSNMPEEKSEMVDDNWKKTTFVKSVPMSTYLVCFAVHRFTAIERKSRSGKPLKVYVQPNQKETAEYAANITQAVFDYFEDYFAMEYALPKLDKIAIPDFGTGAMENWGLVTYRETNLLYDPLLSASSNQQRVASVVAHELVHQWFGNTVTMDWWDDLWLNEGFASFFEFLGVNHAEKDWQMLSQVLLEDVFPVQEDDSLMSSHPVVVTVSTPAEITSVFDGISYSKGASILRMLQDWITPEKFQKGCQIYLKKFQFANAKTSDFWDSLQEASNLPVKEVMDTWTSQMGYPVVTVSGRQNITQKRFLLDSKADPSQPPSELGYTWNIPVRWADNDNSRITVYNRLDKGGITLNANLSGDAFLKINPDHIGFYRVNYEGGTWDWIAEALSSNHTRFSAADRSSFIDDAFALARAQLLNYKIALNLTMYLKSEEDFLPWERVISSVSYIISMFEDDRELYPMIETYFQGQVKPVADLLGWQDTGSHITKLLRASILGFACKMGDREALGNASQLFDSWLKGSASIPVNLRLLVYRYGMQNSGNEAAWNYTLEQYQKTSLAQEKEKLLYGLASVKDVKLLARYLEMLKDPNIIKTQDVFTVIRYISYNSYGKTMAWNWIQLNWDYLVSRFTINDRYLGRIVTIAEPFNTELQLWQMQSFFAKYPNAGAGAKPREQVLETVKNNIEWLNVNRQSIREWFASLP
Protocol: (§1) Brain APA activity was determined as described above
In vivo, in mice (male, 18-20 g Charles River), Example 1 was administered i.v. (50 mg/kg, in a volume of 200 μL).
(§2) For each condition, four to sixteen mice and five to seven rats were used. Animals were sacrificed 180 min after the administration. The brains were immediately removed and homogenized by sonication in 10 vol of ice-cold 50 mM Tris-HCl buffer (pH 7.4). APA enzymatic activity was measured on brain homogenates. For this purpose, aliquots of the tissue homogenate (16 μL) were incubated for 30 min at 37° C. with 200 μM of Glu-βNa, 4 mM CaCl2, and 1 μM bestatin inhibitor, with or without 5 μM EC33, in a total volume of 100 μL of 50 mM Tris-HCl buffer (pH 7.4). Then the assay was pursued as described above.

[3] = target: T2, recombinant mouse APA (Mus musculus, UniProt P16406); experiment: Measurement of APA activity in vitro (GluβNa hydrolysis, microplate); assay type: biochemical; details: 200 μM Glu-βNa, pH 7.4, 37° C., dithiothreitol, 4 mM CaCl2
T2 sequence (P16406 1-945): T1 sequence (P16406 1-945)
Description: Measurement of APA activity in vitro is based on the protocol of Goldbarg adjusted to the scale of assaying on microplates (Pro Bind™ 3915) (Chauvel et al., 1994). In vitro, in the presence of calcium ions, APA hydrolyses a synthetic substrate α-L-glutamyl-β-naphthylamide (GluβNa) to glutamate and β-naphthylamine ([…]). A diazotation reaction in acidic medium makes it possible to reveal the β-naphthylamine by formation of a violet-colored complex: spectrophotometric measurement then makes it possible to know the amount of complex formed and, by reference to a standard curve produced with increasing concentrations of β-naphthylamine, to deduce the enzymatic activity of the sample.
The Glu-βNa substrate (Bachem) and the β-naphthylamine (Sigma) are dissolved in 50% DMSO (dimethyl sulphoxide) and 0.1 N HCl respectively, and conserved at −20° C. at a concentration of 10^−2 M. The diazotation reaction is carried out in the presence of sodium nitrite (87 mM), ammonium sulfamate (130 mM) and N-(1-naphthyl)-ethylenediamine dihydrochloride (23 mM in 95% ethanol). […]
The absorbance is then measured at 540 nm. […]

[4] = target: T3, brain APA (Rattus norvegicus, UniProt P50123); experiment: Measurement of brain APA activity ex vivo after p.o. administration in DOCA-salt rats; details: 8 mg/kg p.o., 180 min after administration
T3 construct: from tissue; host or cells: DOCA-salt rat brain homogenate
T3 sequence (P50123 whole entry): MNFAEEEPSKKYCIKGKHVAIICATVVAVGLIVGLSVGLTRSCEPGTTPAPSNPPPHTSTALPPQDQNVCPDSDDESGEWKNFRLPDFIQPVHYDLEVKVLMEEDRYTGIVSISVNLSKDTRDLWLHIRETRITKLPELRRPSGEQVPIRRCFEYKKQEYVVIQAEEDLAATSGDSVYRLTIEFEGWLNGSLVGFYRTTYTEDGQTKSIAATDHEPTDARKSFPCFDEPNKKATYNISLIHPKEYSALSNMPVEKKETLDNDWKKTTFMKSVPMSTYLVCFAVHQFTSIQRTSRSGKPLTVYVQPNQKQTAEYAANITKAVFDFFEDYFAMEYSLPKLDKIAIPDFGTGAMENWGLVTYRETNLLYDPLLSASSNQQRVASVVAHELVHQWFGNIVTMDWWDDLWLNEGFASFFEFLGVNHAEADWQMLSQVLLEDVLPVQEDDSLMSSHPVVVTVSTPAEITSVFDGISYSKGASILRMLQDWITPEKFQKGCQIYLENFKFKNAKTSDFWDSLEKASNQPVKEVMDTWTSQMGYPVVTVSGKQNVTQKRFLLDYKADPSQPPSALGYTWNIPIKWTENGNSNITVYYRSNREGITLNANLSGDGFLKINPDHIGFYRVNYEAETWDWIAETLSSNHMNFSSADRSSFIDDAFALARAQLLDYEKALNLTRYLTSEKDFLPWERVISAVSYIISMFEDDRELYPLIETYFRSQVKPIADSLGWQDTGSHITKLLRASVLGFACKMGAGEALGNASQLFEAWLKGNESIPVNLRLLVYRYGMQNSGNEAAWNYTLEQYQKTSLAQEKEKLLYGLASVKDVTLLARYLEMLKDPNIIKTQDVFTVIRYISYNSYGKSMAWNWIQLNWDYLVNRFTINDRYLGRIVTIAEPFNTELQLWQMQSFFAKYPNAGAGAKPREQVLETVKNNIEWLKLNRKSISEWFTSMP
Protocol: as §1
In vivo, in DOCA-salt rats (male, 250 g Charles River), Example 2 was administered p.o. (8 mg/kg, in a volume of 400 μL).
as §2

[5] = tested on: hypertensive DOCA-salt rats; experiment: Measurement of mean arterial blood pressure (MABP) and heart rate (HR) in conscious hypertensive DOCA-salt rats; assay type: in vivo; details: 8 mg/kg p.o.
Protocol: Male DOCA-salt rats were anesthetized with 3% isoflurane (Iso-vet®, Piramal, UK) for induction and 1.5-2% isoflurane for maintenance. A catheter was inserted into the right femoral artery to monitor MABP and HR. The catheter was tunneled subcutaneously to exit from the neck. Animals were maintained for 2 days in the animal room, under frequent observation, before MABP and HR recording. Baseline MABP and HR were recorded for at least 60 min before Example 2 was administered p.o. (8 mg/kg, in a volume of 400 μL). MABP and HR were recorded continuously for 6 h after treatment.

Work on `N[C@@H](CCS(=O)(=O)O)CSSC[C@@H](N)CCS(=O)(=O)O` [firibastat] yielded an LVEF ([1]; chronic oral 150 mg/kg once daily for 4 weeks) of 50.9±1%.
With `N[C@@H](CCS(=O)(=O)O)CSSC[C@H](N)C(=O)O` [Example 1, (2R)-2-amino-3-{[(2S)-2-amino-4-sulfobutyl]disulfanyl}propanoic acid] the “brain APA activity” value ([2]; brain homogenate) was 39.6±5.2 nmol of Glu-βNa hydrolyzed per mg of protein per h, the “decrease of brain APA activity” value ([2]; vs. control) was 45% and the “In vitro inhibition of aminopeptidase A, Results” value [3] was 0.81 ± 0.05 µM.
For `N[C@@H](CSS[C@@H](CCc1ccccc1)[C@@H](N)CCS(=O)(=O)O)C(=O)O` [Example 2, (2R)-2-amino-3-{[(3S,4S)-4-amino-1-phenyl-6-sulfohexan-3-yl]disulfanyl}propanoic acid], the LVEF ([1]; chronic oral 25 mg/kg once daily for 4 weeks) was 50.6±0.9%, the “brain APA activity” value ([4]; brain homogenate) was 46.1±2.4 nmol of Glu-βNa hydrolyzed per mg of protein per h and the “decrease of brain APA activity” value ([4]; vs. control) was 29%. For the same molecule, the “effect on HR” value ([5]; 0 to 6 h after administration) was “no effect”, the “decrease in MABP” value ([5]; 3 h after administration) was −27±11 mmHg and the “decrease in MABP” value ([5]; 6 h after treatment) was −44±8 mmHg. For the same molecule, the “In vitro inhibition of aminopeptidase A, Results” value [3] was 0.18 ± 0.02 µM.
With `CCOC(=O)[C@H](CCc1ccccc1)N[C@@H](C)C(=O)N1[C@H](C(=O)O)C[C@@H]2CCC[C@@H]21` [ramipril] the LVEF ([1]; chronic oral 1.25 mg/kg once daily for 4 weeks) was 48.4±1.2%.
